{"source": "patent US20060165821A1", "about": "“Composition comprising scutellaria baicalensis and their uses thereof” (priority 2002, published 2006)", "key": {"IL-6": {"system": "IL-6", "test": "IL-6 in serum of rats with adjuvant arthritis (ELISA)", "type": "in vivo", "conditions": "end of experiment, X ± SD, n = 6", "description": "(§1) Osteoarthritis is characterized by articular cartilage degradation and hypertrophic joint changes. Pro-inflammatory cytokines (IL-1, IL-6, TNF-α) are considered to play important roles in the initiation and development of osteoarthritis (Inoue et al. British Journal of Pharmacology 136:287-295 (2002)). Prostaglandin (PG) E2 has catabolic effects on the articular cartilage in OA (Futani et al J Immunother 2002 1;25(0):S61-S64). Therefore, we measured IL-6 and PGE2 in rats' blood with adjuvant-induced arthritis treated with Scutellaria baicalensis formula using ELISA assay. At the end of the experiment in Example 4.1, IL-6 in serum and PGE2 in articular fluid were assessed."}, "PGE2": {"system": "PGE2", "test": "PGE2 in articular fluid of rats with adjuvant arthritis (ELISA)", "type": "in vivo", "conditions": "end of experiment, X ± SD, n = 6", "description": "as §1"}, "[1]": {"test": "Paw edema induced by Freund's complete adjuvant in rats", "type": "in vivo, Wistar rats", "conditions": "X ± SD, n = 6, oral gavage once per day", "method": "The anti-arthritic activity of Scutellaria baicalensis formula was confirmed in animal study. Eight week-old male Wistar rats were received intradermal injections of 0.1 ml Freund's complete adjuvant (FCA, 7.5 mg/ml) to the paw of the right hindfood. At 14 days, paw edema was induced and rats were randomized into three groups (n=6) including control group, Scutellaria baicalensis formula group (30 mg/kg of Scutellaria baicalensis, 10 mg/kg of Glucosamine and 8 mg/kg of Chondroitin) and indomethacin group (12.5 mg/kg) which serves as a positive control. The treatment groups were given Scutellaria baicalensis formula or indomethacin by oral gavage once per day for a duration of 10 days. The diameters of paw were measured at 16, 20 and 24 days."}, "[2]": {"conditions": "mice or rats; 500 mg/kg oral, 3000 mg/kg IM, 1500 mk/kg IV; cited from earlier work"}, "[3]": {"conditions": "following an oral dose; cited from earlier work"}, "SCC-25 cells": {"system": "SCC-25 cells", "test": "Previously determined IC50 of celecoxib", "type": "cell-based", "conditions": "Homo sapiens, quantity inhibited not stated", "method": "Benzo[a]pyrene (BaP), one of the compounds released from smoking, is a prototypical carcinogen. It is a polycyclic aromatic hydrocarbon (PAH) compound and is found in high quantity (20-40 ng) in each cigarette. BaP is metabolized and activated to become the ultimate carcinogenic metabolite [(+)-anti-7b,8a-dihydroxy-9a,10a-epoxy-7,8,9,10-tetrahydorbenzo[a]pyrene], also known as BPDE. […] We examined the counter-stimulatory effect of Scutellaria baicalensis on BaP-induced COX-2 activity. After the treating SCC-25 cells with BaP for 6 hours, the supernatants were removed and the cells were washed with PBS. […] This situation resembles the chemoprevention in the former smokers."}}, "note": "pIC50: −log10 of the molar value.", "data": [{"compound": "COc1ccc2c(c1)c(CC(=O)O)c(C)n2C(=O)c1ccc(Cl)cc1", "note": "[Indomethacin]", "values": [{"measurement": "IL-6", "setting": "IL-6", "result": "6.0 ± 3.1", "unit": "pg/mL"}, {"measurement": "PGE2", "setting": "PGE2", "result": "6.00 ± 3.1", "unit": "pg/mL"}, {"measurement": "changes of paw edema", "setting": "[1]; 16 d", "result": "0.929 ± 0.214"}, {"measurement": "changes of paw edema", "setting": "[1]; 20 d", "result": "0.771 ± 0.160"}, {"measurement": "changes of paw edema", "setting": "[1]; 24 d", "result": "0.400 ± 0.245"}]}, {"compound": "N[C@H]1C(O)O[C@H](CO)[C@@H](O)[C@@H]1O.O=S(=O)(O)O", "note": "(some centres unmarked) [glucosamine sulfate]", "values": [{"measurement": "mortality", "setting": "[2]", "result": "No mortality"}]}, {"compound": "Chondroitin sulfate", "values": [{"measurement": "tolerability / signs or symptoms of toxicity", "setting": "[3]", "result": "well tolerated"}]}, {"compound": "Cc1ccc(-c2cc(C(F)(F)F)nn2-c2ccc(S(N)(=O)=O)cc2)cc1", "note": "[celecoxib]", "values": [{"measurement": "pIC50", "setting": "SCC-25 cells", "result": 4.60}]}]}
